# Results published in patent publication US10301305B2 (priority 2014, dated 2019).
# Structures can show the parent of a compound that is named as a salt.
# Assays:
# Type in all cases: biochemical
# S. aureus DltA = S. aureus DltA (Staphylococcus aureus (strain NCTC 8325 / PS 47), UniProt Q2FZW6); assay: in vitro DltA activity assay (luminescence), S. aureus DltA; details: recombinant DltA, 30 min pre-incubation, 0.5 mM D-Alanine, 0.5-5 μM ATP; read-out: S. aureus DltA IC50
# Description: (§1) The effect of the compounds of the invention on DltA enzymes has been based on the measure of their inhibition of DltA activity in vitro. To this end, recombinant proteins DltA were expressed and purified after cloning of the genes of S. aureus, E. faecalis, E. faecium and S. agalactiae as described thereafter. The capacity of the compounds of the invention to inhibit DltA enzymatic activity was assessed using the DltA assays as described below:
# (§2) The dltA gene was amplified from chromosomal DNA of S. aureus, E. faecalis, E. faecium and S. agalactiae and introduced into E. coli BL21 (Invitrogen, Carlsbad, Calif.) following manufacturer's instruction. Bacteria were grown at 37° C. under aerobic conditions and isopropyl-beta-D-thiogalactopyranoside (IPTG) was added to 0.5-1 mM when OD600 of the bacterial culture had reached 0.5. After a further incubation for 3 hours, cells were harvested by centrifugation. Purification of the recombinant DltA protein was performed by affinity chromatography on nickel-nitrilotriacetic acid (Ni-NTA) column following manufacturer's instructions (Qiagen). Fractions containing recombinant DltA protein were adjusted to 50% glycerol and stored at −20° C. until use.
# (§3) The binding potency of the inhibitors against DltA enzyme was assessed by IC50 determination in an in vitro DltA activity assay. The assay buffer “AB” contained 50 mM Hepes pH8.0, 10 mM MgCl2, 50 mM KCl, 0.012% Triton-X100, 10 mM DTT and 100 nM Myelin-basic protein. The following components were added in a white polystyrene Costar plate up to a final volume of 30 μL: 3 μL DMSO, or inhibitor dissolved in DMSO and 27 μL DltA enzyme in AB. After 30 min of pre-incubation at room temperature, 30 μL of Substrates mix in AB were added in each well to a final volume of 60 μL. This reaction mixture was then composed of DltA (produced in house from S. aureus, E. faecalis, E. faecium and S. agalactiae), 0.5 mM D-Alanine (Sigma), 0.5-5 μM ATP (Sigma) and 0.05 u/ml inorganic pyrophosphatase (Sigma) in assay buffer. After typically 1-2 hours of incubation at room temperature (conversion rate around 30%), 30 μL of the revelation mix were added to a final volume of 90 μL, including the following constituents at the respective final concentrations: 10000 u/ml luciferase (Sigma), 30 μM D-luciferin (Sigma), 100 μM N-acetylcysteamine (Aldrich). Luminescence intensity was immediately measured on a Fluostar Optima (BMG) (excitation 360 nm, emission 520 nm) and converted into inhibition percentages. For IC50 determinations (Inhibitory Concentration 50%) the inhibitor was added at 6 to 10 different concentrations and the related inhibitions were fitted to a classical Langmuir equilibrium model using XLFIT (IDBS).
# (§4) For compounds interfering with the luminescent signal (quenching), the same experiment without DltA enzyme was performed to allow quenching determination and correction.
# S. Agalactiae DltA = S. Agalactiae DltA (Streptococcus agalactiae serotype III (strain NEM316), UniProt Q8VM67); assay: in vitro DltA activity assay (luminescence), S. agalactiae DltA; details: recombinant DltA, 30 min pre-incubation, 0.5 mM D-Alanine, 0.5-5 μM ATP; read-out: S. Agalactiae DltA IC50
# Description: as §1, §2, §3, §4
# E. feacalis DltA = E. feacalis DltA (Enterococcus faecalis, UniProt Q830N0); assay: in vitro DltA activity assay (luminescence), E. faecalis DltA; details: recombinant DltA, 30 min pre-incubation, 0.5 mM D-Alanine, 0.5-5 μM ATP; read-out: E. feacalis DltA IC50
# E. feacalis DltA, sequence (Q830N0 1-506): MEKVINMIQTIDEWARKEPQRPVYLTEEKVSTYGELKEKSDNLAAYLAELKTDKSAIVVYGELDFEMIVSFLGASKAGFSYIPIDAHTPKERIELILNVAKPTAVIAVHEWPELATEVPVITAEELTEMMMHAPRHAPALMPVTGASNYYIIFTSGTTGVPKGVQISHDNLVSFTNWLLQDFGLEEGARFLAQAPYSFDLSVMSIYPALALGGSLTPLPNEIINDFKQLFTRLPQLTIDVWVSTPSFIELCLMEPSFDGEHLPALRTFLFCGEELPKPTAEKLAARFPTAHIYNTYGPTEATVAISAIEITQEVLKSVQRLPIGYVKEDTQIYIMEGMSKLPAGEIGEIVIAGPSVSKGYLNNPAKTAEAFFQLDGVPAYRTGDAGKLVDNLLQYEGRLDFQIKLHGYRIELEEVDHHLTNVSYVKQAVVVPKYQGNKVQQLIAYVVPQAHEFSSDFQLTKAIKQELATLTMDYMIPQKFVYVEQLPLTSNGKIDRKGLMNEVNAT
# Description: as §1, §2, §3, §4
# E. feacium DltA = E. feacium DltA (Enterococcus faecium, UniProt Q3XZT7); assay: in vitro DltA activity assay (luminescence), E. faecium DltA; details: recombinant DltA, 30 min pre-incubation, 0.5 mM D-Alanine, 0.5-5 μM ATP; read-out: E. feacium DltA IC50
# E. feacium DltA, sequence (Q3XZT7 1-504): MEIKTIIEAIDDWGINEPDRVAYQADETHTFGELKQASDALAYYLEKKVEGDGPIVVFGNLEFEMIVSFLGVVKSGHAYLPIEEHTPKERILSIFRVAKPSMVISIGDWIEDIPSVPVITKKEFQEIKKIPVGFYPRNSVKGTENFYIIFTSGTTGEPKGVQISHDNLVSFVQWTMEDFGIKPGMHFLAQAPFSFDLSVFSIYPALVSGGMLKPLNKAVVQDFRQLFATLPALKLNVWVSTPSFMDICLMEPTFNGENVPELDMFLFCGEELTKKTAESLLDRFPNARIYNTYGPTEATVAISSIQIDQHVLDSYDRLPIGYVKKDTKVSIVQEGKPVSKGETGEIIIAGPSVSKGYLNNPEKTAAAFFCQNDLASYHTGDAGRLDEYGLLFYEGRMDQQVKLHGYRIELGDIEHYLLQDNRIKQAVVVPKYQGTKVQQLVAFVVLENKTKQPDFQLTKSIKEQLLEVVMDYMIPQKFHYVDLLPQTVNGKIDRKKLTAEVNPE
# Description: as §1, §2, §3, §4
compound,measurement,setting,value
C[C@H]1CCCC(n2cnc3cc(-c4cc(N(C)CCN(C)C)c(C(N)=O)c5[nH]cnc45)ccc32)C1 (mixture of isomers) [Example 136],IC50,S. aureus DltA,0.0057 µM
same,IC50,S. Agalactiae DltA,0.36 µM
"OC[C@H]1CCN(c2cc(-c3ccc4c(c3)ncn4C3CCCCC3)c3nc[nH]c3n2)C[C@@H]1O [Example 2, (3R,4R)-1-[7-(1-Cyclohexyl-1H-benzimidazol-5-yl)-3H-imidazo[4,5-b]pyridin-5-yl]-4-hydroxymethyl-piperidin-3-ol]",IC50,S. aureus DltA,0.066 µM
same,IC50,E. feacalis DltA,0.018 µM
same,IC50,E. feacium DltA,0.086 µM
same,IC50,S. Agalactiae DltA,0.5 µM
"OCC1CCN(c2cc(-c3ccc4c(c3)ncn4C3CCCCC3)c3nc[nH]c3n2)CC1 [Example 3, {1-[7-(1-Cyclohexyl-1H-benzimidazol-5-yl)-3H-imidazo[4,5-b]pyridin-5-yl]-piperidin-4-yl}-methanol]",IC50,S. aureus DltA,0.2 µM
same,IC50,E. feacalis DltA,0.052 µM
same,IC50,E. feacium DltA,0.1 µM
same,IC50,S. Agalactiae DltA,1.4 µM
"OCCNc1cc(-c2ccc3c(c2)ncn3C2CCCCC2)c2nc[nH]c2n1 [Example 4, 2-[7-(1-Cyclohexyl-1H-benzimidazol-5-yl)-3H-imidazo[4,5-b]pyridin-5-ylamino]-ethanol]",IC50,S. aureus DltA,0.52 µM
same,IC50,E. feacalis DltA,0.38 µM
same,IC50,E. feacium DltA,2.2 µM
same,IC50,S. Agalactiae DltA,3.1 µM
"OCC1(CO)CCN(c2cc(-c3ccc4c(c3)ncn4C3CCCCC3)c3nc[nH]c3n2)CC1 [Example 6, {1-[7-(1-Cyclohexyl-1H-benzimidazol-5-yl)-3H-imidazo[4,5-b]pyridin-5-yl]-4-hydroxymethyl-piperidin-4-yl}-methanol]",IC50,S. aureus DltA,0.011 µM
same,IC50,E. feacalis DltA,0.018 µM
same,IC50,E. feacium DltA,0.029 µM
same,IC50,S. Agalactiae DltA,0.18 µM
"OCCC1CCN(c2cc(-c3ccc4c(c3)ncn4C3CCCCC3)c3nc[nH]c3n2)C1 (stereo not shown) [Example 10, 2-{1-[7-(1-Cyclohexyl-1H-benzimidazol-5-yl)-3H-imidazo[4,5-b]pyridin-5-yl]-pyrrolidin-3-yl}-ethanol]",IC50,S. aureus DltA,0.16 µM
same,IC50,E. feacalis DltA,0.072 µM
same,IC50,E. feacium DltA,0.12 µM
same,IC50,S. Agalactiae DltA,3.8 µM
"c1nc2c(-c3ccc4c(c3)ncn4C3CCCCC3)cc(N3CC4CNCC4C3)nc2[nH]1 (stereo not shown) [Example 11, 7-(1-Cyclohexyl-1H-benzimidazol-5-yl)-5-(hexahydro-pyrrolo[3,4-c]pyrrol-2-yl)-3H-imidazo[4,5-b]pyridine]",IC50,S. aureus DltA,0.0014 µM
same,IC50,E. feacalis DltA,0.019 µM
same,IC50,E. feacium DltA,0.03 µM
same,IC50,S. Agalactiae DltA,0.26 µM
"OC[C@H]1CCN(c2cc3[nH]cnc3c(-c3ccc4c(c3)ncn4C3CCCCC3)n2)C[C@@H]1O [Example 19, (3R,4R)-1-[4-(1-Cyclohexyl-1H-benzimidazol-5-yl)-1H-imidazo[4,5-c]pyridin-6-yl]-4-hydroxymethyl-piperidin-3-ol]",IC50,S. aureus DltA,0.033 µM
same,IC50,E. feacalis DltA,0.46 µM
same,IC50,E. feacium DltA,1.8 µM
same,IC50,S. Agalactiae DltA,1.9 µM
"OCC1(CO)CCN(c2cc3[nH]cnc3c(-c3ccc4c(c3)ncn4C3CCCCC3)n2)CC1 [Example 20, {1-[4-(1-Cyclohexyl-1H-benzimidazol-5-yl)-1H-imidazo[4,5-c]pyridin-6-yl]-4-hydroxymethyl-piperidin-4-yl}-methanol]",IC50,S. aureus DltA,0.012 µM
same,IC50,E. feacalis DltA,0.056 µM
same,IC50,E. feacium DltA,0.17 µM
same,IC50,S. Agalactiae DltA,0.29 µM
"c1nc2c(-c3ccc4c(c3)ncn4C3CCCCC3)nc(N3CC4CNCC4C3)cc2[nH]1 (stereo not shown) [Example 24, 4-(1-Cyclohexyl-1H-benzimidazol-5-yl)-6-(hexahydro-pyrrolo[3,4-c]pyrrol-2-yl)-1H-imidazo[4,5-c]pyridine]",IC50,S. aureus DltA,0.038 µM
same,IC50,E. feacalis DltA,0.57 µM
same,IC50,E. feacium DltA,3.7 µM
same,IC50,S. Agalactiae DltA,5.2 µM
"OCC1(CO)CCN(c2cc(-c3ccc4c(c3)ncn4C3CCCCC3)c3nc[nH]c3c2)CC1 [Example 34, [1-(1′-Cyclohexyl-1H,1′H-[4,5′]bibenzimidazolyl-6-yl)-4-hydroxymethyl-piperidin-4-yl]-methanol]",IC50,S. aureus DltA,0.11 µM
same,IC50,E. feacalis DltA,0.079 µM
same,IC50,E. feacium DltA,0.17 µM
same,IC50,S. Agalactiae DltA,0.38 µM
"c1nc2c(-c3ccc4c(c3)ncn4C3CCCCC3)cc(N3CC4CNCC4C3)cc2[nH]1 (stereo not shown) [Example 36, 1′-Cyclohexyl-6-(hexahydro-pyrrolo[3,4-c]pyrrol-2-yl)-1H,1′H-[4,5′]bibenzimidazolyl]",IC50,S. aureus DltA,0.08 µM
same,IC50,E. feacalis DltA,0.17 µM
same,IC50,E. feacium DltA,1.1 µM
same,IC50,S. Agalactiae DltA,3.8 µM
"O=[N+]([O-])c1c(N2CC[C@H](CO)C2)cc(-c2ccc3c(c2)ncn3C2CCCCC2)c2nc[nH]c12 [Example 43, [(S)-1-(1′-Cyclohexyl-7-nitro-1H,1′H-[4,5′]bibenzimidazolyl-6-yl)-pyrrolidin-3-yl]-methanol]",IC50,S. aureus DltA,0.085 µM
same,IC50,E. feacalis DltA,0.03 µM
same,IC50,E. feacium DltA,0.17 µM
same,IC50,S. Agalactiae DltA,6.3 µM
"O=[N+]([O-])c1c(N2CC[C@H](CO)[C@@H](O)C2)cc(-c2ccc3c(c2)ncn3C2CCCCC2)c2nc[nH]c12 [Example 44, (3R,4R)-1-(1′-Cyclohexyl-7-nitro-1H,1′H-[4,5′]bibenzimidazolyl-6-yl)-4-hydroxymethyl-piperidin-3-ol]",IC50,S. aureus DltA,0.049 µM
same,IC50,E. feacalis DltA,0.071 µM
same,IC50,E. feacium DltA,0.096 µM
same,IC50,S. Agalactiae DltA,1.5 µM
"O=C(O)c1c(N2CC[C@H](CO)C2)cc(-c2ccc3c(c2)ncn3C2CCCCC2)c2nc[nH]c12 [Example 55, 1′-Cyclohexyl-6-((S)-3-hydroxymethyl-pyrrolidin-1-yl)-1H,1′H-[4,5′]bibenzimidazolyl-7-carboxylic acid]",IC50,S. aureus DltA,0.25 µM
same,IC50,E. feacalis DltA,0.15 µM
same,IC50,E. feacium DltA,0.36 µM
same,IC50,S. Agalactiae DltA,0.76 µM
"N#Cc1c(N2CC[C@H](CO)C2)cc(-c2ccc3c(c2)ncn3C2CCCCC2)c2nc[nH]c12 [Example 58, 1′-Cyclohexyl-6-((S)-3-hydroxymethyl-pyrrolidin-1-yl)-1H,1′H-[4,5′]bibenzimidazolyl-7-carbonitrile]",IC50,S. aureus DltA,0.18 µM
same,IC50,E. feacalis DltA,0.12 µM
same,IC50,E. feacium DltA,0.23 µM
same,IC50,S. Agalactiae DltA,8.6 µM
"N#Cc1c(N2CCC(CO)(CO)CC2)cc(-c2ccc3c(c2)ncn3C2CCCCC2)c2nc[nH]c12 [Example 61, 6-(4,4-Bis-hydroxymethyl-piperidin-1-yl)-1′-cyclohexyl-1H,1′H-[4,5′]bibenzimidazolyl-7-carbonitrile]",IC50,S. aureus DltA,0.24 µM
same,IC50,E. feacalis DltA,0.11 µM
same,IC50,E. feacium DltA,0.23 µM
same,IC50,S. Agalactiae DltA,4.7 µM
"NC(=O)c1c(F)cc(-c2ccc3c(c2)ncn3C2CCCCC2)c2nc[nH]c12 [Example 63, 1′-Cyclohexyl-6-fluoro-1H,1′H-[4,5′]bibenzimidazolyl-7-carboxamide]",IC50,S. aureus DltA,0.049 µM
same,IC50,E. feacalis DltA,0.043 µM
same,IC50,E. feacium DltA,0.083 µM
same,IC50,S. Agalactiae DltA,2 µM
"NC(=O)c1c(N2CC[C@H](CO)C2)cc(-c2ccc3c(c2)ncn3C2CCCCC2)c2nc[nH]c12 [Example 64, 1′-Cyclohexyl-6-((S)-3-hydroxymethyl-pyrrolidin-1-yl)-1H,1′H-[4,5′]bibenzimidazolyl-7-carboxamide]",IC50,S. aureus DltA,0.065 µM
same,IC50,E. feacalis DltA,0.027 µM
same,IC50,E. feacium DltA,0.068 µM
same,IC50,S. Agalactiae DltA,0.71 µM
"NC(=O)c1c(N2CC3CNCC3C2)cc(-c2ccc3c(c2)ncn3C2CCCCC2)c2nc[nH]c12 (stereo not shown) [Example 65, 1′-Cyclohexyl-6-(hexahydro-pyrrolo[3,4-c]pyrrol-2-yl)-1H,1′H-[4,5′]bibenzimidazolyl-7-carboxylic acid amide hydrochloride]",IC50,S. aureus DltA,0.066 µM
same,IC50,E. feacalis DltA,0.036 µM
same,IC50,E. feacium DltA,0.14 µM
same,IC50,S. Agalactiae DltA,1.8 µM
"CCn1cnc2cc(-c3cc(OCCN(C)C)c(C(N)=O)c4[nH]cnc34)ccc21 [Example 198, 6-(2-Dimethylamino-ethoxy)-1′-ethyl-1H,1′H-[4,5′]]bibenzimidazolyl-7-carboxamide methanesulfonic acid salt]",IC50,S. Agalactiae DltA,1.4 µM
